Assay results reported in patent US20070010548A1, “Compounds having inhibitive activity of phosphatidylinositol 3-kinase and methods of use thereof” (ZENTARIS GmbH, priority 2003, published 2007).

Columns and labels:
[1] = test system: phospho-Akt in MDA-MB-468 cells; test: Phospho-Akt levels in MDA-MB-468 cells (PathScan phospho-Akt ELISA / immunoblotting); type: cell-based, human; settings: 50 μM, 4 hours, serum-starved MDA-MB-468 cells; DMSO alone = 100%
Protocol: Because phosphorylation and activation of PKB/Akt is dependent on PI 3-K activity, PI 3-K inhibitors decrease the cellular levels of phospho-Akt. MDA-MB-468 cells show constitutively high levels of phospho-Akt as a result of abnormal activation of PI 3-K signaling.
The effect of treatment with PI 3-K inhibitors on phospho-Akt levels in these cells was determined as follows. Cells were plated into 6-well cell culture dishes at a density of 5×10^5 cells per well in RMPI media containing 10% fetal calf serum and 2 mM L-glutamine. Twenty-four hours later, media was removed and replaced with serum-free RMPI containing 2 mM L-glutamine. The cells were serum-starved overnight.
Compounds were diluted into serum-free media to a final concentration of 50 μM and added to the cells. The cells were incubated in the presence of PI 3-K inhibitors for 4 hours. Phospho-Akt levels were determined using one of the following methods.
To determine phospho-Akt levels using immunoblotting, cells were washed twice with PBS and lysed in ice-cold lysis buffer (1% Triton X-100, 50 mM Hepes pH 7.4, 150 mM NaCl, 1.5mM MgCl2, 1 mM EGTA, 100 mM NaF, 10 mM Sodium Pyrophosphate, 1 mM Na(subscript: 3)VO(subscript: 4), 10% glycerol, InmM phenylmethylsulfonyl fluoride, and 10 ug/ml aprotifin). Total protein concentration was determined using a BCA assay. 30ug of total cell lysate protein was diluted into Laemmli sample buffer and loaded onto a 10% acrylamide gel, subjected to SDS-PAGE, and transferred to a PVDF membrane. The membrane was blocked with 5% bovine serum albumin and then incubated at 4° C. overnight with antibody. The membrane was washed in TBS-T (10 mM Tris-HCl pH 7.4, 150 mM NaCl, and 0.1% Tween-20) and incubated with HRP-conjugated antibody (diluted in 5% milk in TBS-T) at room temperature for 1 h. The membrane was washed extensively and the proteins were visualized by chemiluminscent detection. The compounds effects on phospho-Akt levels were observed as relative differences in the amount of phospho-Akt detected by immunoblotting.
Effects on cellular levels of phospho-Akt following treatment with PI 3-K inhibitors were quantified using the PathScan phospho-Akt ELISA (Cell Signaling Technologies)., a sandwich ELISA for detection of phospho-Akt. The kit was used according to the manufacturer protocol. Absorbance at 450 nm was determined for each sample and used directly as equivalent of phospho-Akt levels.
Percent decreases in phospho-Akt levels were determined by normalizing relative to blank samples (0%/O) and control samples treated with DMSO alone (1 00%).

[2] = test system: MA-MB-468 cells; test: Three dimensional matrix model of tumor cell growth; type: cell-based; settings: Homo sapiens, read-out: Percent Inhibition of Tumor Cell Viability
Protocol: PI 3-K inhibitors are assayed for effects on tumor cells grown in three-dimensional matrix that more closely mimics the environment of a tumor than other cell culture models. MA-MB-468 cells are mixed in a matrix solution, such as Matrigel (13D Biosciences) at 2×10 ^6 cells/ml and 100 μl of this mixture added to each well of a 24 well cell culture plate. Each well is 6.5 mm in diameter and 2×10^5 cells are added per well. Once the matrix is solidified, RMPI media containing 10% fetal calf serum and 2 mM L-glutamine is added to each well. After approximately 14 days of culture, the compounds are added to cell media at final concentrations ranging from 10 nM to 100 μM, and the cells are grown in the presence of the compounds for 7 days in RMPI media containing 0.5% fetal calf serum and 20 mM L-glutamine.
Following this treatment, cell growth in the three dimensional matrix can be measured using a cell viability assay such as the CellTiter 96 One Solution Cell Proliferation Assay (Promega, G3582). […] of assay solution is added per well, the cells are incubated for 3 hours. Absorbance at 550 nm is determined for each well and used directly as being equivalent of cell number. In addition, live and dead cells can be distinguished and observed using fluorescence microscopy after staining with Fluorescein diacetate (Sigma), which labels live cells, and propidium iodide (Sigma), which labels dead cells.
The PI 3-K inhibitors of the present invention show anti-proliferative effects in this model of tumor cell growth, as shown by the representative data in Table 6, which compares the anti-proliferative effects of one inhibitor compared to the effects of the benchmark PI 3-K inhibitor LY294002. The PI 3-K inhibitors of the present invention also show enhanced anti-proliferative activity when combined with other cancer drugs, for example paclitaxel or doxorubicin.

SMILES	Approx. % decrease phospho-Akt relative to controls [1]	also measured
CC1(C)CC(=O)C2=C(C1)Nc1c(c(C(C)(C)C)nn1C(C)(C)C)C2c1ccc(OCc2ccccc2)c(OCc2ccccc2)c1 (centres unmarked) [Compound 963985]	50%	cytotoxicity at 1 µM ([2]; Concentration 1 μM): 10%; cytotoxicity at 5 µM ([2]; Concentration 5 μM): 20%; cytotoxicity at 10 µM ([2]; Concentration 10 μM): 30%; cytotoxicity at 50 µM ([2]; Concentration 50 μM): 40%
Cc1ccc(C2C3=C(CC(C)(C)CC3=O)Nc3c2c(C(C)(C)C)nn3-c2ccc(C)cc2)cc1 (centres unmarked) [Compound 964028, 3-t-butyl-4-(4-methylphenyl)-7,7-dimethyl-1-(4-methylphenyl)-4,7,8,9-tetrahydro-1H-pyrazolo[3,4-b]quinolin-5(6H)-one]	40%	
COc1ccc(-n2nc(C(C)(C)C)c3c2NC2=C(C(=O)CC(C)(C)C2)C3c2ccccc2Cl)cc1 (centres unmarked) [Compound 964076, 3-t-butyl-4-(2-chlorophenyl)-7,7-dimethyl-1-(4-methoxyphenyl)-4,7,8,9-tetrahydro-1H-pyrazolo[3,4-b]quinolin-5(6H)-one]	60%	
COc1ccc(OC)c(C2C3=C(CC(C)(C)CC3=O)Nc3c2c(C(C)(C)C)nn3-c2ccc(C)cc2C)c1 (centres unmarked) [Compound 964232]	50%	
COc1ccccc1C1C2=C(CC(C)(C)CC2=O)Nc2c1c(C(C)(C)C)nn2-c1ccc(Cl)c(C)c1 (centres unmarked) [Compound 964247]	30%	
CC1(C)CC(=O)C2=C(C1)Nc1c(c(C(C)(C)C)nn1-c1ccc(Cl)c(Cl)c1)C2c1cccc(OCc2ccccc2)c1 (centres unmarked) [Compound 964260]	40%	
CC1(C)CC(=O)C2=C(C1)Nc1c(c(-c3ccccc3)nn1-c1cccc(F)c1)C2c1ccc(C(F)(F)F)cc1 (centres unmarked) [Compound 964661]	40%	
